In paper PMC3466195, “Potassium Acts as a GTPase-Activating Element on Each Nucleotide-Binding Domain of the Essential Bacillus subtilis EngA” (PLoS ONE, 2012):

Experiments:
B. subtilis EngA [1] = molecular target: T1, B. subtilis EngA (Bacillus subtilis, UniProt P50743); experiment: Nucleotide binding monitored by intrinsic tryptophan fluorescence; settings: KD
T1 construct: full-length EngA (named hereafter as EngA) and its two shortened EngA variants, GD1 and GD2-KH were overexpressed in E. coli; His-tag (from pET15b; purified on Ni-IDA) (N); made in house; host or cells: E. coli C41(DE3)
T1 sequence (P50743 1-436): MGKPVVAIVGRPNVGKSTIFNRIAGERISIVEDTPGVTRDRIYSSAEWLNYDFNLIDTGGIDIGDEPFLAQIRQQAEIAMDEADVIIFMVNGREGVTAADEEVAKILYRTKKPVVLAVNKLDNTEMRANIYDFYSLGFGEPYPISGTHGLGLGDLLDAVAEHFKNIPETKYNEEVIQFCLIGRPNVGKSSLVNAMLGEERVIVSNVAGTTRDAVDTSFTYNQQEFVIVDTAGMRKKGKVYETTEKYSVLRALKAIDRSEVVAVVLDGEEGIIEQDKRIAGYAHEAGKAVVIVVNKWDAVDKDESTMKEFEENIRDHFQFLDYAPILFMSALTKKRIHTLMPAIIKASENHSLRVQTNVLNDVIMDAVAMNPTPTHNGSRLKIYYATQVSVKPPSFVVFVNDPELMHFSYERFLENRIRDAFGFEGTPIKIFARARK
Procedure: (§1) Fluorescence measurements were performed essentially as described previously for the unmodified nucleotides or the N-methylanthraniloyl-GDP (MANT-GDP) analogue using a PTI QuantaMaster 4 spectrofluorimeter, [62]. Dissociation constants (K D) for nucleotides were calculated by monitoring intrinsic tryptophan fluorescence variation using 295 nm excitation wavelength, with a slit width of 2 nm, and scanning emission fluorescence between 310 and 400 nm (for the unmodified nucleotide) or 400 and 500 nm (for MANT-GDP), with a slit width of 4 nm. For the intrinsic tryptophan fluorescence, inner filter effect was corrected using N-Acetyltryptophanamide (NATA) as a reference. 1 µM NATA or 0.5 µM of YphC were mixed with 50 mM Tris/HCl pH 8, 2 mM MgCl2, NaCl or KCl and increasing amount of nucleotide (GDP, GMPPNP or MANT-GDP), as indicated in the figure legends. The fluorescence was normalized respective to the integrated value of the fluorescence peak obtained in the absence of unmodified nucleotide (between 310 and 400 nm) or MANT-GDP (between 400 and 500 nm). The data were fitted using the GraFit 5.0.11 software with the following equation: [drawing 1] where F is the relative fluorescence intensity in the presence of nucleotide, F min is the relative fluorescence in the absence of nucleotide, F max is the fluorescence intensity at saturating concentration of nucleotide, L is the nucleotide concentration, E is the protein concentration and K D is the dissociation constant of the protein-nucleotide complex.

[2] = molecular target: T2, GD1 (shortened B. subtilis EngA variant) (Bacillus subtilis, UniProt P50743); experiment: as above
T2 construct: two shortened EngA variants that only contain GD1 or GD2-KH; His-tag (from pET15b; purified on Ni-IDA) (N); made in house; host or cells: E. coli C41(DE3)
Procedure: as §1

[3] = molecular target: T3, GD2-KH (shortened B. subtilis EngA variant) (Bacillus subtilis, UniProt P50743); experiment: as above
T3 construct: two shortened EngA variants that only contain GD1 or GD2-KH; His-tag (from pET15b; purified on Ni-IDA) (N); made in house; host or cells: E. coli C41(DE3)
Procedure: as §1

S. typhimurium EngA = molecular target: S. typhimurium EngA; parameters: method as in PMID 17905831; settings: both G-domains; cited from earlier work
EngA = molecular target: T4, EngA (Bacillus subtilis, UniProt P50743); experiment: Fluorescence-based Thermal Shift Assay (TSA); format: binding; settings: EngA with 1 mM nucleotide; no effector Tm 41.5
T4 construct: full-length EngA (named hereafter as EngA) and its two shortened EngA variants, GD1 and GD2-KH were overexpressed in E. coli; His-tag (from pET15b; purified on Ni-IDA) (N); made in house; host or cells: E. coli C41(DE3)
T4 sequence (P50743 1-436): T1 sequence (P50743 1-436)
Procedure: (§2) Assays were performed into a 96-well thin-wall PCR plate (BioRad) using an IQ5 96-well format real-time PCR instrument (Bio-Rad) over a temperature range from 20°C to 90°C with temperature increments of 0.2°C [64]. Assay samples (23 µl) contained 50 mM Tris/HCl pH 8, 0.5 mg/ml of EngA or 1.5 mg/ml of GD1 or GD2-KH, and concentration of salt and/or nucleotides as indicated, and 2 µl of SYPRO Orange solution (Molecular Probes, Eugene, OR, 500x in DMSO diluted 5 times in water) was added. The plates were heated and changes in fluorescence for the environmentally sensitive dye SYPRO Orange were monitored through a charge-coupled device (CCD) camera. The melting temperature (Tm) values for each protein were determined graphically from the fluorescence first derivative of the melting curves. The wavelengths for excitation and emission were 470 nm and 570 nm, respectively.

GD1 [4] = molecular target: T5, GD1 (Bacillus subtilis, UniProt P50743); experiment: Fluorescence-based Thermal Shift Assay (TSA); format: binding
T5 construct: two shortened EngA variants that only contain GD1 or GD2-KH; His-tag (from pET15b; purified on Ni-IDA) (N); made in house; host or cells: E. coli C41(DE3)
T5 sequence (P50743 4-167 limits assumed): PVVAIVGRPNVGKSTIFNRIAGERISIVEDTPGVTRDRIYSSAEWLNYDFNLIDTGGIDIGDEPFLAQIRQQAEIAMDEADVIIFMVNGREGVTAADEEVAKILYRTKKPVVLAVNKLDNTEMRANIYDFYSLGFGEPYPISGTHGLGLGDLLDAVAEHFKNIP
Procedure: as §2

GD2-KH [5] = molecular target: T6, GD2-KH (Bacillus subtilis, UniProt P50743); experiment: Fluorescence-based Thermal Shift Assay (TSA); format: binding
T6 construct: two shortened EngA variants that only contain GD1 or GD2-KH; His-tag (from pET15b; purified on Ni-IDA) (N); made in house; host or cells: E. coli C41(DE3)
T6 sequence (P50743 173-436): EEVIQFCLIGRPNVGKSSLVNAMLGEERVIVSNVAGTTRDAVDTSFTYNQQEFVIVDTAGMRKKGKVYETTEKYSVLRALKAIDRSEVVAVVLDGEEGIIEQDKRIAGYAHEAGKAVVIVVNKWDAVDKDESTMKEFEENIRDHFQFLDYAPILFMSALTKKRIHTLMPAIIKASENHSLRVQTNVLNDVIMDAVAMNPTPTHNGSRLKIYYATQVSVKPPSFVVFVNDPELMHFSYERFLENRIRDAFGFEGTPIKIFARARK
Procedure: as §2

B. subtilis EngA [6] = molecular target: T1, B. subtilis EngA; experiment: Fluorescence resonance energy transfer between tryptophan residues and MANT moiety; format: binding; settings: FRET Trp to MANT
Procedure: as §1, with “1 µM NATA or 0.5 µM of YphC were mixed with 50 mM Tris/HCl pH 8, 2 mM MgCl2, NaCl or KCl and increasing amount of nucleotide (GDP, GMPPNP or MANT-GDP), as indicated in the figure legends.” left out

B. subtilis EngA [7] = molecular target: T7, B. subtilis EngA (Bacillus subtilis, UniProt P50743); format: biochemical
T7 construct: full-length EngA (named hereafter as EngA) and its two shortened EngA variants, GD1 and GD2-KH were overexpressed in E. coli; His-tag (from pET15b; purified on Ni-IDA) (N); made in house; host or cells: E. coli C41(DE3)
Procedure: (§3) GTPase activities were determined using a coupled-enzymatic assay containing pyruvate kinase and lactate dehydrogenase as previously described. The proteins (2 µM or 8 µM of EngA in the presence of KCl or NaCl, respectively, and 4 µM for GD1 and 12.5 µM for GD2-KH) and the coupled assay system containing 50 mM Tris/HCl pH 8, 4 mM phosphoenol pyruvate, 0.4 mM NADH, 1 mM MgCl2, 30 µg pyruvate kinase and 15 µg lactate dehydrogenase, were mixed into a quartz cuvette (final volume of 750 µl) in the presence of GTP (up to 1 mM) and salts, either KCl or NaCl, as indicated in the figure legends. When the GTPase and XTPase activities of the wild-type EngA and the single point mutants were studied (Fig. 7), the assay medium (final volume of 500 µl) contained 3 mM MgCl2 and the pyruvate kinase was increased to 120 µg to ensure an immediate conversion of XDP back into XTP. The reaction was started by adding 3.2 µM or 0.8 µM of wild-type EngA or single point mutants in the absence or presence of 300 mM K^+, respectively. GTP or XTP hydrolysis was monitored by following the change in absorbance at 340 nm upon conversion of NADH to NAD^+, for 10 min at 37°C, using either a Hitachi U3350 or a Safas UVmc^2 spectrophotometer. The slope measured (ΔDO/min) was used to calculate the activity of the protein taking into account the εNADH340nm = 6220 l.mol^−1.cm^−1. Control experiments were systematically performed in the absence of nucleotides (protein alone) or in the absence of proteins (nucleotides alone) and the activities measured in all cases were negligible. Between many different EngA preparations, the specific activities measured at 1 mM GTP varied between 100–130 nmoles/min/mg protein.

GD1 [8] = molecular target: T5, GD1; experiment: GTP hydrolysis coupled-enzymatic assay; format: biochemical
Procedure: as §3

GD2-KH [9] = molecular target: T6, GD2-KH; experiment: GTP hydrolysis coupled-enzymatic assay; format: biochemical
Procedure: as §3

T. maritima EngA = settings: cited from earlier work

For Nc1nc2c(ncn2[C@@H]2O[C@H](COP(=O)(O)OP(=O)(O)O)[C@@H](O)[C@H]2O)c(=O)[nH]1 [GDP], the Kd (B. subtilis EngA [1]; 300 mM KCl) was 16.3 ± 2.3 µM, the Kd (B. subtilis EngA [1]; 300 mM NaCl) was 12.8 ± 2.9 µM and the Kd (B. subtilis EngA [1]; no salt (absence of K+), 2 mM MgCl2, 25°C) was 8 ± 1 µM. The Kd ([2]; GD1, 300 mM KCl) was 4.5 ± 0.9 µM, the Kd ([2]; GD1, 300 mM NaCl) was 2.7 ± 0.4 µM and the Kd ([3]; 300 mM KCl) was 2.9 ± 0.8 µM. For the same compound, the Kd ([3]; 300 mM NaCl) was 1.6 ± 0.2 µM, the Kd (S. typhimurium EngA) was 1 to 3 µM and the Tm (EngA) was 59.4 °C. It also gave a Tm (GD1 [4]; GD1 with 1 mM nucleotide, no effector Tm 51) of 64 °C, a ΔTm at 1000 µM (GD1 [4]; pH 8, read-out: Tm increase) of roughly 13 °C and a Tm (GD2-KH [5]; GD2-KH with 1 mM nucleotide, no effector Tm 42.8) of 55.8 °C. It also gave a ΔTm at 1000 µM (GD2-KH [5]; pH 8, read-out: Tm increase) of roughly 13 °C.
Compound CNc1ccccc1C(=O)O[C@H]1[C@@H](O)[C@H](n2cnc3c(=O)[nH]c(N)nc32)O[C@@H]1COP(=O)(O)OP(=O)(O)O [mant-GDP, N-methylanthraniloyl-GDP] has a Kd (B. subtilis EngA [6]; 300 mM KCl) of 2.9 ± 0.2 µM and a Kd (B. subtilis EngA [6]; no salt) of 3.1 ± 0.2 µM.
For [K+] [K^+, potassium], the “increase in catalytic efficiency of EngA” value (B. subtilis EngA [7]; 300 mM K+ vs absence of K+) was 20 fold, the “stimulation of the GTPase activity of EngA” value (B. subtilis EngA [7]; 1 M KCl, 1 mM GTP) was roughly 15 fold and the GTPase activity (B. subtilis EngA [7]; EngA, 0.4 M KCl) was roughly 5 min⁻¹. The “K+ concentration giving maximal GTPase activity” value (GD1 [8]; GD1) was 500 mM, the GTPase activity (GD1 [8]; GD1, 1M KCl) was roughly 3.4 min⁻¹ and the GTPase activity (GD2-KH [9]; GD2-KH, 1M KCl) was roughly 0.45 min⁻¹. The “increase of GTPase activity upon K+ binding” value (GD2-KH [9]; GD2 domain) was roughly 100 fold, the GTPase activity (T. maritima EngA; 0.4 M KCl) was 0.11 min⁻¹ and the “stimulation of GTPase activity by K+” value (T. maritima EngA; T. maritima EngA) was “about 4 fold”.
